Molecules are shown by their SMILES. pIC50: −log10 of the molar value. Bounds are passed on as bounds.

The target in one data set is PDGFRα D842V (Homo sapiens (Human), UniProt P16234, D842V). Nature of the data set: PDGFRα D842V biochemical enzymatic activity assay (EZReader 2 mobility shift). To be noted: ATP at APPKM (25 μM), 90 minutes. The source says:
PDGFRα and KIT enzymatic activity was monitored using the Perkin Elmer electrophoretic mobility shift technology platform, the EZReader 2.
Within the linear, steady-state phase of the kinase enzymatic reaction, the mixed pool of phosphorylated (product) and non-phosphorylated (substrate) peptides was passed through the microfluidic system of the PerkinElmer EZ Reader 2, under an applied electric potential difference. The presence of the phosphate group on the product peptide provided a difference in mass and charge between that of the substrate peptide, resulting in a separation of the substrate and product pools in the sample (Perrin et al., Expert Opin Drug Discovery 2010, January 5(1):51-63).
As the product and substrate peptide mixture passes the lasers within the instrument, these pools are detected (λex=488 nm, λem=568 nm) and resolved as separate peaks. The ratio between these peaks reflects the activity of the compound at that concentration, in that well, under those conditions.
Inhibition of KIT (D816V) PDGFRα (D842V) Mutant Biochemical Enzymatic Activity
All test articles were dissolved in 100% DMSO at a stock concentration of 10 mM. A 100×, 10-point, 4-fold serial dilution of all test compounds was created in 100% DMSO, starting at a relevant concentration, usually 1 mM. A volume of 0.130 μL of each concentration was transferred to the relevant well of a 384-well assay plate (Greiner 781 201) using a TTPLabtech Mosquito nano-liter dispenser. Using the Multidrop, the remaining constituents of the reaction were then added to the 0.130 μL of compound as follows:
The reaction was stopped by the addition of 70 μl of Stop buffer (100 mM HEPES pH 7.5, 0.015% Brij 35, 35 mM EDTA and 0.2% of Coating Reagent 3, Caliper Lifesciences). The plate was read on a Caliper EZReader 2.

Data set [1] in a line: Brain penetration in rats, 24 h IV infusion, brain to plasma ratios. In kind it is in vivo, Sprague-Dawley rats. The source says:
To understand the brain penetration, brain to plasma ratios of the compounds were obtained in Sprague-Dawley (SD) rats. In vivo equilibrium distribution between blood and brain in preclinical species such as rats is a commonly used parameter to evaluate brain penetration. Kp,brain is the ratio of concentrations in brain and blood (Cbrain/Cplasma). The compound's passive diffusion characteristics, its affinity for membrane transporters at the blood-brain barrier (BBB), and the relative drug binding affinity differences between the plasma proteins and brain tissue influence the Kp,brain.
The animals received IV infusion of 1 mg/kg/hr of the compound over 24 hours via jugular vein cannulation. At 24 hours, blood was collected via tail vein bleeding or cardiac puncture (under anesthesia) and centrifuged to obtain plasma samples. Brain tissues were collected and homogenized with phosphate-buffered saline (PBS). The concentrations of the compounds were obtained in the plasma and brain homogenates by LC-MS/MS analysis.

PDGFRα D842V, sequence (P16234 24-1089 D842V): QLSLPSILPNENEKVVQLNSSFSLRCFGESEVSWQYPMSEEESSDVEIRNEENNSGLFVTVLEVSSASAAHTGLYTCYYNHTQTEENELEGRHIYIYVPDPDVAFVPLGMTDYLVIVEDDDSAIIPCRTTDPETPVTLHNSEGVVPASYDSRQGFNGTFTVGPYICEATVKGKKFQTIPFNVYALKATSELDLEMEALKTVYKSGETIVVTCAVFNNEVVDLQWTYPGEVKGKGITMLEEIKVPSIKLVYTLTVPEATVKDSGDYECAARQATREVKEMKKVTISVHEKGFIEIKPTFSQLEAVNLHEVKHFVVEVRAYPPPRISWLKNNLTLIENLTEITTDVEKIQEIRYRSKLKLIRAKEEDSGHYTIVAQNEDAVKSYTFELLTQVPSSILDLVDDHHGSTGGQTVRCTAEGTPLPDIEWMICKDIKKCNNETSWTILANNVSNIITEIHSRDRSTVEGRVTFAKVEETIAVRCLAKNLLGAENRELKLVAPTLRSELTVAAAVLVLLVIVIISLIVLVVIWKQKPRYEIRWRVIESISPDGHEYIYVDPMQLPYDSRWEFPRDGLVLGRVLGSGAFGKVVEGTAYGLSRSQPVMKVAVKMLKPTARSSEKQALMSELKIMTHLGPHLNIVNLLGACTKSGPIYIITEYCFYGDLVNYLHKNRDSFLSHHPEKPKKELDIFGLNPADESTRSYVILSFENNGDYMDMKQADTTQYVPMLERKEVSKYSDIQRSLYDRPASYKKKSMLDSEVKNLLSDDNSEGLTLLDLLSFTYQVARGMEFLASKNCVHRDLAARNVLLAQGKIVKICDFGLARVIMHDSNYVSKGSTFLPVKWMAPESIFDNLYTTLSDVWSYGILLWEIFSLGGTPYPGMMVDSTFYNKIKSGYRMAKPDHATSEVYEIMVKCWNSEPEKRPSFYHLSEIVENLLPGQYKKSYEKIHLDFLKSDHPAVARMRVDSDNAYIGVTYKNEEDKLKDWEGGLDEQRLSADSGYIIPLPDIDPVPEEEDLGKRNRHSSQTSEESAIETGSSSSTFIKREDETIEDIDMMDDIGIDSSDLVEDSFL

A word on the pIC50: it is the IC50 on a negative log10 scale, so that one unit is a factor of ten. With `CC(C)(CO)n1cc(-c2cc3c(N4CCN(c5ncc([C@@](C)(N)c6ccc(F)cc6)cn5)CC4)ncnn3c2)cn1` [Compound 2, (S)-2-(4-(4-(4-(5-(1-amino-1-(4-fluorophenyl)ethyl)pyrimidin-2-yl)piperazin-1-yl)pyrrolo[2,1-f][1,2,4]triazin-6-yl)-1H-pyrazol-1-yl)-2-methylpropan-1-ol], on PDGFRα D842V, the pIC50 is over 9.52.

As for `CC(C)(O)Cn1cc(-c2cc3c(N4CCN(c5ncc([C@@](C)(N)c6ccc(F)cc6)cn5)CC4)ncnn3c2)cn1` [Compound 1, (S)-1-(4-(4-(4-(5-(1-Amino-1-(4-fluorophenyl)ethyl)pyrimidin-2-yl)piperazin-1-yl)pyrrolo[2,1-f][1,2,4]triazin-6-yl)-1H-pyrazol-1-yl)-2-methylpropan-2-ol], the pIC50 at PDGFRα D842V is over 9.52.

For `CCn1cc(-c2cc3c(N4CCN(c5ncc([C@@](C)(N)c6ccc(F)cc6)cn5)CC4)ncnn3c2)cn1` [Compound 63, reference compound], the “Kp, brain” value in data set [1] (Mean of 3 rats, IV infusion 1 mg/kg/hr over 24 hours) came out at 1.75.

Consider `C[C@](N)(c1ccc(F)cc1)c1cnc(N2CCN(c3ncnn4cc(-c5cnn([C@H]6C[C@@H](O)C6)c5)cc34)CC2)nc1` [Compound 10, cis-3-(4-(4-(4-(5-((S)-1-Amino-1-(4-fluorophenyl)ethyl)pyrimidin-2-yl)piperazin-1-yl)pyrrolo[2,1-f][1,2,4]triazin-6-yl)-1H-pyrazol-1-yl)cyclobutanol], for which the “Rat Kp” value in data set [1] (rat, methods of Example 4) is reported as under 0.39.

Consider `C[C@](N)(c1ccc(F)cc1)c1cnc(N2CCN(c3ncnn4cc(-c5cnn(CCO)c5)cc34)CC2)nc1` [Compound 4, (S)-2-(4-(4-(4-(5-(1-Amino-1-(4-fluorophenyl)ethyl)pyrimidin-2-yl)piperazin-1-yl)pyrrolo[2,1-f][1,2,4]triazin-6-yl)-1H-pyrazol-1-yl)ethanol], for which the pIC50 on PDGFRα D842V was over 9.52.

For `C[C@@H](CO)n1cc(-c2cc3c(N4CCN(c5ncc([C@@](C)(N)c6ccc(F)cc6)cn5)CC4)ncnn3c2)cn1` [Compound 6, (S)-2-(4-(4-(4-(5-((S)-1-amino-1-(4-fluorophenyl)ethyl)pyrimidin-2-yl)piperazin-1-yl)pyrrolo[2,1-f][1,2,4]triazin-6-yl)-1H-pyrazol-1-yl)propan-1-ol], the pIC50 at PDGFRα D842V is over 9.52.

For the molecule `C[C@H](CO)n1cc(-c2cc3c(N4CCN(c5ncc([C@@](C)(N)c6ccc(F)cc6)cn5)CC4)ncnn3c2)cn1` [Compound 5, (R)-2-(4-(4-(4-(5-((S)-1-Amino-1-(4-fluorophenyl)ethyl)pyrimidin-2-yl)piperazin-1-yl)pyrrolo[2,1-f][1,2,4]triazin-6-yl)-1H-pyrazol-1-yl)propan-1-ol], the negative-log IC50 (pIC50) at PDGFRα D842V is over 9.52.

Turning to `C[C@@H](O)Cn1cc(-c2cc3c(N4CCN(c5ncc([C@@](C)(N)c6ccc(F)cc6)cn5)CC4)ncnn3c2)cn1` [Compound 3, (R)1-{4-[4-(4-{5-[(S)-1-Amino-1-(4-fluoro-phenyl)-ethyl]-pyrimidin-2-yl}-piperazin-1-yl)-pyrrolo[2,1-f][1,2,4]triazin-6-yl]-pyrazol-1-yl}-propan-2-ol], the pIC50 at PDGFRα D842V is over 9.52.

(Values after US12552795B2, “Pyrrolotriazine derivatives for treating kit-and PDGFRA-mediated diseases” (Blueprint Medicines Corporation, priority 2019, dated 2026).)
